Here are results for four compounds from ChEMBL document CHEMBL1201862, “PubChem BioAssay data set” (2004).

Assay [1] in a line: cytotoxicity in HEK-293T cells, dose response, cytotoxicity control for TCR NF-kB inhibitor project, luminescence, T-cell screen hits (AID 489026).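 Also: cells exposed to compound about 14 hours before the viability readout.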 The format is functional, cell-based.
Assay [2] is described as follows: Luminescence Cell-Based Dose Response HTS to Identify Activators of Luciferase Translation or Activity in H4-C Neuroglioblastoma Cells. [Related pubchem assays: 1829 (Project Summary), 1814 (Primary HTS)]. The class given is functional.
Assay [3] in a line: Luminescence Cell-Based Dose Retest to Confirm Activators of 5'UTR Stem-Loop Driven Alpha-Synuclein mRNA Translation in H4 Neuroglioblastoma Cells. [Related pubchem assays (depositor defined):AID1813, AID1829]. The class given is functional.
Assay [4] in a line: inhibitors of firefly luciferase expression or activity, dose response, H4 neuroglioma cells, luminescence (AID 1990). The format is functional, cell-based.
A short description of assay [5]: Luminescence Cell-Based Dose Confirmation HTS to Identify Inhibitors of 5'UTR Stem-Loop Driven Alpha-Synuclein mRNA Translation in H4 Neuroglioblastoma Cells. [Related pubchem assays: 1827 (Project Summary), 1813 (Primary HTS)]. The class given is functional.
Assay [6] can be described thus: Luminescence Cell-Based Dose Response HTS to Identify Inhibitors of 5'UTR Stem-Loop Driven Prion Protein mRNA Translation in H4 Neuroglioblastoma Cells. [Related pubchem assays: 1827 (Project Summary), 1813 (Primary HTS)]. The class given is functional.
Assay [7] can be described thus: Luminescence Cell-Based Dose Response HTS to Identify Inhibitors of Luciferase Translation or Activity in H4-C Neuroglioblastoma Cells. [Related pubchem assays: 1813 (Primary HTS), 1827 (Project Summary)]. The format is functional.
Assay [8] can be described thus: Luminescence Cell-Based Dose Response HTS to Identify Activators of 5'UTR Stem-Loop Driven Prion Protein mRNA Translation in H4-C Neuroglioblastoma Cells. [Related pubchem assays: 1829 (Project Summary), 1814 (Primary HTS)]. The format is functional.
Assay [9] in a line: inhibitors of SNCA 5'UTR-driven reporter translation, confirmation, H4 neuroglioma cells, luminescence (AID 1988). The class given is functional, cell-based.
Assay [10] in a line: Luminescence Cell-Based Dose HTS Response to Identify Inhibitors of 5'UTR Stem-Loop Driven Prion Protein mRNA Translation in H4-C Neuroglioblastoma Cells. [Related pubchem assays (depositor defined):AID1814, AID1827]. The class given is functional.
In the next assay the target is Cytochrome P450 2C9 (Homo sapiens, UniProt P11712).
Assay [11] has as its target Lysine-specific demethylase 4C (Homo sapiens, UniProt Q9H3R0). Nature of the assay: GASC-1 (JMJD2C) histone demethylase inhibitors, dose response, biochemical, DELFIA europium, cherry-picked samples (AID 488835). The format is functional.
The next assay relates to INS1. In words: beta cell apoptosis inhibitors, cytokine rescue, dose response, luminescence, retest (AID 449756).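 Also: cell death triggered by IL-1 beta plus TNF-alpha plus IFN-gamma mixture; protective hits raise ATP signal compared with cytokine alone wells.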 The format is functional, cell-based. The following applies: Rattus norvegicus.
The target of assay [12] is Intestinal-type alkaline phosphatase (Homo sapiens, UniProt P09923). In words: inhibition of human intestinal alkaline phosphatase – biochemical, dose response (AID 488876). The format is functional.
Assay [13] concerns the target T1, Alkaline phosphatase, tissue-nonspecific isozyme (Homo sapiens, UniProt P05186).
T1 sequence (P05186 whole entry): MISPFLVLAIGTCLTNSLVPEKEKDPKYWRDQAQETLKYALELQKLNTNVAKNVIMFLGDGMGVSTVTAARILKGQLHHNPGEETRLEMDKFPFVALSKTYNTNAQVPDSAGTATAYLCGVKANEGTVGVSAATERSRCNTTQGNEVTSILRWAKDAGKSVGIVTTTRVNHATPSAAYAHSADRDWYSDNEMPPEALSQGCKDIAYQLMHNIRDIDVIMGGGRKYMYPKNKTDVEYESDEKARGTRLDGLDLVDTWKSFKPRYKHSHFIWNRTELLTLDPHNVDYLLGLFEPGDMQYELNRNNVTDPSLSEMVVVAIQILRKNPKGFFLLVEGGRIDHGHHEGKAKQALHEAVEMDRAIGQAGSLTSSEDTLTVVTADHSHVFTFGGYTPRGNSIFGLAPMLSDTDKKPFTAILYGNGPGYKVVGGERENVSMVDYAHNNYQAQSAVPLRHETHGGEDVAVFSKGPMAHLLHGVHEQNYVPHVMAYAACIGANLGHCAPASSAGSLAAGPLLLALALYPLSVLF
Nature of the assay: TNAP enzyme inhibition by screening hits, dose response, selectivity assay for mouse IAP inhibitor project, biochemical, human TNAP, uHTS hits (AID 488906). The class given is functional.

Assay [14] has as its target Intestinal-type alkaline phosphatase (Mus musculus, UniProt P24822). Nature of the assay: PubChem AID 488785. The class given is functional.
Assay [15] addresses T2, SUMO-activating enzyme (Homo sapiens, UniProt Q9UBT2). Nature of the assay: inhibitors of in vitro SUMOylation cascade, primary screen, biochemical, HTRF, uHTS (AID 2006). The class given is protein-complex assay.
Assay [16] addresses T3, Replicative DNA helicase DnaB (Mycobacterium tuberculosis, UniProt P9WMR3).
T3 sequence (P9WMR3 whole entry): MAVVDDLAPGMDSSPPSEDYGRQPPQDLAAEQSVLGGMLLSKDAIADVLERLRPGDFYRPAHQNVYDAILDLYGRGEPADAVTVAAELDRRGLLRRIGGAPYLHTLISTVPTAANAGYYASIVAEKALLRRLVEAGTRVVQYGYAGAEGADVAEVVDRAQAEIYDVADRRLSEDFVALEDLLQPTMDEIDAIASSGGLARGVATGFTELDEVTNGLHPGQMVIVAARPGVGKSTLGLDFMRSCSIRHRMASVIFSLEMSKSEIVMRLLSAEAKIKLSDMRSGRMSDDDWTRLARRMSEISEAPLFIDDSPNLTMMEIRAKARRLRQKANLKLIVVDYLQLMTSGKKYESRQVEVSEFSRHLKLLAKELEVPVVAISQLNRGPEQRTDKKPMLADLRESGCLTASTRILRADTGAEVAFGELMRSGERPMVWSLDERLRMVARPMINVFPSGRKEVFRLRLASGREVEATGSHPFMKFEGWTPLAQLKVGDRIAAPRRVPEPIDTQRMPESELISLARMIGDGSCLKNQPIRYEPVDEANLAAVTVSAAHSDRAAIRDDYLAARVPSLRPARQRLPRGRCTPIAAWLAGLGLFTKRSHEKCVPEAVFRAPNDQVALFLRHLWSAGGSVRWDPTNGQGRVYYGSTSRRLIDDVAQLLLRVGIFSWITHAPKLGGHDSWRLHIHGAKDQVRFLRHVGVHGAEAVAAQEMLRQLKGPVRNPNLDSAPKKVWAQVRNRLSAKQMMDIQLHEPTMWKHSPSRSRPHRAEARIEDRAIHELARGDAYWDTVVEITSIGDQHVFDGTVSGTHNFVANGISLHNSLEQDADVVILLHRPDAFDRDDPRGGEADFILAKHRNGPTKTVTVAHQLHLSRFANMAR
Nature of the assay: DnaB intein splicing inhibitors, dose response, biochemical, cell-free fluorescence (AID 449749). The format is functional.

The target of assay [17] is T2, SUMO-activating enzyme. Nature of the assay: SUMOylation inhibitor hit validation, confirmation, SUMOylation inhibitor project, biochemical, AlphaScreen (AID 2018). The class given is functional.
A further assay deals with Genome polyprotein (dengue virus type 2, UniProt P29990). Nature of the assay: Dengue-2 NS5 methyltransferase inhibitors, primary screen, biochemical, confirmation dose response (AID 588689). The format is functional.
A further assay concerns the target T4, Protein RecA (Mycobacterium tuberculosis, UniProt P9WHJ3).
T4 sequence (P9WHJ3 whole entry): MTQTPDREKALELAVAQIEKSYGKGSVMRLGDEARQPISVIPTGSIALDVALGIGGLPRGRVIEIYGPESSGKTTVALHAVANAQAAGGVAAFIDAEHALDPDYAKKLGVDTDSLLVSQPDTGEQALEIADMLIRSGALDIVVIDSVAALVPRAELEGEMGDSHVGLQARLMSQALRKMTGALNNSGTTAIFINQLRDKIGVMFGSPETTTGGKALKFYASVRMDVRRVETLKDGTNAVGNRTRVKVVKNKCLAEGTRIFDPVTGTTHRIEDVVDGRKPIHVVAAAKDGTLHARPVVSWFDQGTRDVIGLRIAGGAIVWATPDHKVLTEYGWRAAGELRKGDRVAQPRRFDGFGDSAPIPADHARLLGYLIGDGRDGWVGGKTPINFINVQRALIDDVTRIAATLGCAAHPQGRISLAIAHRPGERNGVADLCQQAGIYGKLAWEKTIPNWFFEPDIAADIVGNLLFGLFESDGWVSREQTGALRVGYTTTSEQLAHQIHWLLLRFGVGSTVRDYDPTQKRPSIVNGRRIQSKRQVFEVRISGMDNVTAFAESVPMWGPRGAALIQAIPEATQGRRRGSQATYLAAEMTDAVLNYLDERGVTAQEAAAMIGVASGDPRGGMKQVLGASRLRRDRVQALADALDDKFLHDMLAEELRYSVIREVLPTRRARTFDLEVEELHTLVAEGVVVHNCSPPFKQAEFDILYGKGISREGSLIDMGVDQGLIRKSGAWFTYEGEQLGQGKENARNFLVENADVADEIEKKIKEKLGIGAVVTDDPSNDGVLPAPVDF
Nature of the assay: Fluorescence Cell-Free Homogeneous Dose Retest to Identify Inhibitors of RecA-Intein Splicing Activity. [Related pubchem assays (depositor defined):AID2097, AID2223, AID489010, AID492950]. The class given is functional.

Calls of active or inactive are those of the source.

T2 sequence (Q9UBE0 whole entry): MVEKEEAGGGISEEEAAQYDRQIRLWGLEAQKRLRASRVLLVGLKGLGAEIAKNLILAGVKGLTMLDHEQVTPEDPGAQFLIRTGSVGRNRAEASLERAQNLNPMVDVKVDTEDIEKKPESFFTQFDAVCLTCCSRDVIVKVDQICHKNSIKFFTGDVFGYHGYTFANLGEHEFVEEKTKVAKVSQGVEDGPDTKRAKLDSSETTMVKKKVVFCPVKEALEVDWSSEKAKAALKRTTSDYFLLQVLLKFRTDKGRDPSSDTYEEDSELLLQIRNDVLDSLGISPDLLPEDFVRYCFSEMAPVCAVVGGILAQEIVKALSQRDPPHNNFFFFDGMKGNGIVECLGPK
T2 sequence (Q9UBT2 whole entry): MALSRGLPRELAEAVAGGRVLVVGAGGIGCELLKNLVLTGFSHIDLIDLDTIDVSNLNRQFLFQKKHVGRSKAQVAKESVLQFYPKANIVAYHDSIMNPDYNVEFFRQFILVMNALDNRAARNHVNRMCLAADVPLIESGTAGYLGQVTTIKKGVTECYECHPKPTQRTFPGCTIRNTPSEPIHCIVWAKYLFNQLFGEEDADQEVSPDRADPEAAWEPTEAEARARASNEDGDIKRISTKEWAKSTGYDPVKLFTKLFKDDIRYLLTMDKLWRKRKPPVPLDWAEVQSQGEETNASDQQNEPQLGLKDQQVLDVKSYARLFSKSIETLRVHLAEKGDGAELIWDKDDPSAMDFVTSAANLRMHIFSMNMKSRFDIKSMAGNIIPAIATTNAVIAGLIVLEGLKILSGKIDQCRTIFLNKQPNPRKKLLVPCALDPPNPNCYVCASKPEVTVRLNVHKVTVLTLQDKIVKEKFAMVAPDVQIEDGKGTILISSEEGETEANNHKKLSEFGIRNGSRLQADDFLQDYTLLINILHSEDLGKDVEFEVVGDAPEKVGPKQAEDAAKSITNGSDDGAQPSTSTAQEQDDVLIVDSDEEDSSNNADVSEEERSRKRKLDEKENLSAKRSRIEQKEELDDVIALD
Chain of Lysine-specific demethylase 4C (Q9H3R0 whole entry): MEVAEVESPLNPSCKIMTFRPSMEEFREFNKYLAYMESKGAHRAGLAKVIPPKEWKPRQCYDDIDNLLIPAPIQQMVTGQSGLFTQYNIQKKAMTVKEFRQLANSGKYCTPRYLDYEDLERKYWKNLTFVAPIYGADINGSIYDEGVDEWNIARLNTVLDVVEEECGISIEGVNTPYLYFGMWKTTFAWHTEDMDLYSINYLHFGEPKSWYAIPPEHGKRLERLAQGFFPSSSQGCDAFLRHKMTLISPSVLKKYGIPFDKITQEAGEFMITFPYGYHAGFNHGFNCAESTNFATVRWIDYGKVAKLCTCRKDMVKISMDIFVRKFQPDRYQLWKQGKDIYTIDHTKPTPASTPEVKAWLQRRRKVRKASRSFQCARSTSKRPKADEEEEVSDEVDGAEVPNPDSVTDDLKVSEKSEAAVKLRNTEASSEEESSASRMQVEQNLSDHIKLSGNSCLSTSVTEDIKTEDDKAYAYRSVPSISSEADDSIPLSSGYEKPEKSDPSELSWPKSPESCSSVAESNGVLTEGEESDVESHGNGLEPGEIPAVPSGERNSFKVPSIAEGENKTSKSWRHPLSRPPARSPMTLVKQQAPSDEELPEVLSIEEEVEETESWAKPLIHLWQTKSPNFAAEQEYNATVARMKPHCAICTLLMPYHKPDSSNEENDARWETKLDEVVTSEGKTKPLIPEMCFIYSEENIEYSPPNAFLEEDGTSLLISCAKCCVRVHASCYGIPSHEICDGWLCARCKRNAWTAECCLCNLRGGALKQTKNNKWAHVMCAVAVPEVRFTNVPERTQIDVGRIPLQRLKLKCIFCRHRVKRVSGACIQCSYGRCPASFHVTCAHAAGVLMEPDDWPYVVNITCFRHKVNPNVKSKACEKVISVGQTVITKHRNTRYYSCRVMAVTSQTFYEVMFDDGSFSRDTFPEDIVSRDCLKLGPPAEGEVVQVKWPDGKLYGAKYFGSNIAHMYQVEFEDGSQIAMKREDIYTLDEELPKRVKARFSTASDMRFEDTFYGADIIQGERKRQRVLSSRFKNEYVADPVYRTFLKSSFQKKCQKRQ
Chain of Genome polyprotein (P29990 2492-3391 limits assumed): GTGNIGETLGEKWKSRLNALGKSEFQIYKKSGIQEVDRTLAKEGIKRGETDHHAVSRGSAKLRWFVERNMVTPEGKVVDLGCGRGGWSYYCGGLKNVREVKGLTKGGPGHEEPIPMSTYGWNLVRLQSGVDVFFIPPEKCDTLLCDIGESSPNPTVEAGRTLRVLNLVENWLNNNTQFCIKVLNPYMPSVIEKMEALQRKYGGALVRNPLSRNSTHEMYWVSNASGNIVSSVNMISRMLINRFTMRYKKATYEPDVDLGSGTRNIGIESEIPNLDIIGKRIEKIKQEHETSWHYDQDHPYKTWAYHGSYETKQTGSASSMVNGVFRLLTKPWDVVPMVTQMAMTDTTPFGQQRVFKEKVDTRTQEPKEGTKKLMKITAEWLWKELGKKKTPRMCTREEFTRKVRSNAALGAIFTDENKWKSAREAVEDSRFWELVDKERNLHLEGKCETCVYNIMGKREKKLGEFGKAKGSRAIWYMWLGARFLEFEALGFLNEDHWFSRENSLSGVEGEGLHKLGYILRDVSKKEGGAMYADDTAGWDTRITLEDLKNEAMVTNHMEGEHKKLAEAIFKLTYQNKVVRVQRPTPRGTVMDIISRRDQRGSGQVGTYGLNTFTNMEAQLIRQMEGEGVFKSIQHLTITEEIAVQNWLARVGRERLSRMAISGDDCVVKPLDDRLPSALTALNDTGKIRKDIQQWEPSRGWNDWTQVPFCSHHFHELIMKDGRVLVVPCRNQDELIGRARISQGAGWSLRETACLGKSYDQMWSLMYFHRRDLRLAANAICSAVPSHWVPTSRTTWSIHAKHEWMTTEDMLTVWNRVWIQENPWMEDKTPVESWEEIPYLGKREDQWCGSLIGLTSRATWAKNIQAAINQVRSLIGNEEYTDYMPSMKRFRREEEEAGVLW
Chain of Intestinal-type alkaline phosphatase (Mus musculus, UniProt P24822) (P24822 whole entry): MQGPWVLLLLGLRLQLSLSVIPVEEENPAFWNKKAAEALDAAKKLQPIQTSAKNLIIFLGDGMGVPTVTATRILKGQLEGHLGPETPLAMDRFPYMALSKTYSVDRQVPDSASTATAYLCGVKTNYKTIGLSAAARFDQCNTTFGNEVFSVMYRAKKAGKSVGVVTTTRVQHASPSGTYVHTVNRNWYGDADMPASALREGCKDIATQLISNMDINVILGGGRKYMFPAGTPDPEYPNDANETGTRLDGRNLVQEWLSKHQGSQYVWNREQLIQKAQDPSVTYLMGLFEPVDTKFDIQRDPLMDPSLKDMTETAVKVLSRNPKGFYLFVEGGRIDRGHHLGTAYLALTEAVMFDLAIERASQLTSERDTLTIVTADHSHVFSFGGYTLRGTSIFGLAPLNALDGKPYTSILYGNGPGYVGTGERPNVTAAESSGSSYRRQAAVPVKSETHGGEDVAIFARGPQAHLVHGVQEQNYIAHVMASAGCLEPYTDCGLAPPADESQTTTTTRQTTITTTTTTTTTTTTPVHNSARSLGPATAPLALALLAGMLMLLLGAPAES
Chain of Cytochrome P450 2C9 (P11712 whole entry): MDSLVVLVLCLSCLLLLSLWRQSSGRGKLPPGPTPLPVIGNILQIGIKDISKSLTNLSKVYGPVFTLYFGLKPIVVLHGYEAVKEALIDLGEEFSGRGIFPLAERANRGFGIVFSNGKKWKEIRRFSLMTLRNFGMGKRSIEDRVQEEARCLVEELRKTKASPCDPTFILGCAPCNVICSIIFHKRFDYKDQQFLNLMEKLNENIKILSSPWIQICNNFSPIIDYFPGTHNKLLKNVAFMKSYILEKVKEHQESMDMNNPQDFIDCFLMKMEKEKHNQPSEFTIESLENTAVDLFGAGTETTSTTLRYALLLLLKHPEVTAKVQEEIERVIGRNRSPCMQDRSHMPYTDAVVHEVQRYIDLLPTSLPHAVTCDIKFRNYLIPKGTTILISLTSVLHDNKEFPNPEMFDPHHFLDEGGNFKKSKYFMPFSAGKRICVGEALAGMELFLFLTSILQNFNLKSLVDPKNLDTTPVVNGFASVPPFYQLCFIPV
Chain of Intestinal-type alkaline phosphatase (Homo sapiens, UniProt P09923) (P09923 whole entry): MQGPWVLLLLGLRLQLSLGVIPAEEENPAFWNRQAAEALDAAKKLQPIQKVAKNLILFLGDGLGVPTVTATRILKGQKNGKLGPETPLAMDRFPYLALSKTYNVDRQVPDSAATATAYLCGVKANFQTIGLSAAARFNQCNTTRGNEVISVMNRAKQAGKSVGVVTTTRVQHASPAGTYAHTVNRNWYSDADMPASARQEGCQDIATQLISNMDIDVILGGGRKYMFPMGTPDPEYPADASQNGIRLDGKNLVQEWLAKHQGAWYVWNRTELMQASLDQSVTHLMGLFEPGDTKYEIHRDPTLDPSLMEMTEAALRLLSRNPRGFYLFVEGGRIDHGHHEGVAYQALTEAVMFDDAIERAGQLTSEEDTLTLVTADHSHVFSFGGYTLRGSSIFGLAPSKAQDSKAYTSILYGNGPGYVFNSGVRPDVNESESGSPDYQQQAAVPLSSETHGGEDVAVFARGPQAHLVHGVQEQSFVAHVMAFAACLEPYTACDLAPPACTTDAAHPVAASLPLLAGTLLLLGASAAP

Take `O=C(COc1ccccc1-c1ccccc1)N/N=C/c1cccc2ccccc12`: the IC50 in [1] was > 80 µM (inactive). For the same compound, the EC50 is 0.921 µM (inconclusive) in [2]; 1.84 µM (inconclusive) in assay [3]; 11.5 µM (active) in assay [4]; 1.74 µM (active) in assay [5]; > 120 µM (not active) in assay [6]; 0.85 µM (active) in assay [7]. Besides, the EC50 in assay [8] is 0.695 µM (inconclusive); in assay [9], < 0.195 µM (active); in assay [10], 1.76 µM (active). Besides, the AC50 on Cytochrome P450 2C9 was 20 µM (inconclusive).
Turning to `O=C(CNC(=O)c1ccccc1O)N/N=C/c1cc(Br)ccc1OC(=O)/C=C/c1ccco1`, the AC50 in [11] is 10.8 µM (active); in the assay with INS1, 3.13 µM (active). For the same compound, the EC50 in assay [4] is 10.7 µM (active); in [6] it was 7.28 µM (active); in [9] it was 9.47 µM (active).
Take `CCOC(=O)c1ccc(N2CCN(c3ccccc3F)CC2)c(NC(=O)Nc2ccccc2)c1`: the IC50 was > 100 µM (inactive) in [12], > 100 µM (inactive) in [13] and 8.66 µM (active) in [14].
As to `COc1cc(/C=C2\C(=O)N(c3ccc(S(N)(=O)=O)cc3)N=C2C)ccc1OC(=O)c1ccco1`, the IC50 is > 100 µM (inactive) at SUMO-activating enzyme [15], 6.36 µM (active) on SUMO-activating enzyme [17] and 73.2 µM (active) at Genome polyprotein. The AC50 in assay [16] is > 380 µM (inactive). The EC50 at Protein RecA was 23.8 µM (active).
